In EP1902732A1, “PROPHYLACTIC/THERAPEUTIC AGENT FOR HER2-EXPRESSING CANCER” (Takeda Pharmaceutical Company Limited, priority 2005, dated 2006):

Experiments:
Assay type in all cases: cell-based, human
[1] = test system: LNCaP prostate cancer cell; experiment: Viable cell count using Cell Counting Kit-F; conditions: LNCaP; HER2-expressing cancer; five days of culture
Method: (§1) BT-474 breast cancer cell, MDA-MB-453 breast cancer cell, A549 non-small cell lung cancer cell and LNCaP prostate cancer cell were used as human HER2-expressing cells while MDA-MB-231 breast cancer cell and A498 kidney cancer cell (all purchased from ATCC) were used as HER2-nonexpressing cells. Each of the cells used had been seeded into a 96-plate at 500cells/150 µL/well and cultured overnight. Each of the compounds, i.e., antimycin (final concentrations: 1, 0.1, 0.01 and 0.001 µmol/L), 2,4-dinitrophenol (final concentrations: 0.6, 0.2, 0.06 and 0.02 mmol/L), metformin (final concentrations: 25, 5, 1 and 0.2 mmol/L) and AICAR (final concentrations: 25, 5, 1 and 0.2 mmol/L) was diluted with a medium and added for 50 µL/well at a time to the final concentrations mentioned above. Following five days of culture at 37°C in 5% CO2, the cells were counted using Cell Counting Kit-F (Dojindo Laboratories).
(§2) Viable cell count using Cell Counting Kit-F was carried out by the following method according to the attached instruction. The supernatant was removed from the 96-well plate after five days of culture. Cell Counting Kit-F diluted 1000-fold with an RPMI medium (phenol red-free, serum-free) was added for 100 µL/well at a time. After 30 minutes of reaction at room temperature, fluorescence (excitation wavelength; 480 nm, fluorescent wavelength; 530 nm) was determined with a fluorescent plate reader.
(§3) From the determination results, percentage of the fluorescence level in the wells added with the compound was determined assuming that the fluorescence level in the wells without the addition of the compound (control) is 100%, and the remaining cellular quantity was determined in % with respect to that of the control.
(§4) BT-474 breast cancer cell, MDA-MB-453 breast cancer cell and LNCaP prostate cancer cell were used as human HER2-expressing cells while MDA-MB-231 breast cancer cell and A498 kidney cancer cell (all purchased from ATCC) were used as HER2-nonexpressing cells. Each of the cells used had been seeded into a 96-well plate at 500 cells/150 µL/well and cultured overnight. Troglitazone (final concentrations: 25, 6.25 and 1.56 µmol/L) was diluted with a medium, and added for 50 µL/well at a time to the final concentrations mentioned above. Following five days of culture at 37°C in 5% CO2, the cells were counted using Cell Counting Kit-F (Dojindo Laboratories).
as §3, with “troglitazone” for “the compound”

[2] = test system: MDA-MB-453 breast cancer cell; experiment: Viable cell count using Cell Counting Kit-F; conditions: MB453; HER2-expressing cancer; five days of culture
Method: as §1, §2, §3, §4
as §3, with “troglitazone” for “the compound”

[3] = test system: BT-474 breast cancer cell; experiment: Viable cell count using Cell Counting Kit-F; conditions: BT474; HER2-expressing cancer; five days of culture
Method: as §1, §2, §3, §4
as §3, with “troglitazone” for “the compound”

[4] = test system: phosphorylated S6 kinase (S6K); experiment: Western blotting of phosphorylated S6K in BT-474 cells; conditions: Example 7, two hours, antimycin 1-0.01 nmol/L, oligomycin 100-1 ng/mL, 2,4-dinitrophenol 300-3 µmol/L
Method: (§5) Human HER2-expressing human breast cancer cell line BT-474 (purchased from American Tissue Culture Collection (ATCC)) was seeded into a 24-multiwell plate (BT-474: 1.2 x 10^5 cells/well) and cultured overnight in a carbon dioxide gas incubator (5% CO2, 37°C). As an energy metabolism inhibitor having a mechanism that differed from that of rotenone, mitochondrial respiratory chain complex III-inhibiting compound antimycin (Wako Pure Chemical Industries) was added to final concentrations of 1, 0.3, 0.1, 0.03 and 0.01 nmol/L while continuing culture. Using another plate, mitochondrial respiratory chain complex V-inhibiting compound oligomycin (Wako Pure Chemical Industries) was added to final concentrations of 100, 30, 10, 3 and 1 ng/mL while continuing culture. In addition, 2,4-dinitrophenol was added to 300, 100, 30, 10 and 3 µmol/L while continuing culture. Two hours after the addition of the agent, the broth was removed and the cells were lysed with an SDS sample buffer (200 µL). Then, this cell lysate was used to perform western blotting analysis. Specifically, this cell lysate (8 µL) was separated by an SDS-PAGE method (gel concentration: 7.5-15%) (Analytical Biochemistry, No. 166, pp. 368-379, 1987) and transferred onto a nitrocellulose membrane (BioRad). Then, an antibody specific to phosphorylated HER2 (Cell signaling technology, Code# 2244), pACC antibody specific to phosphorylated acetyl-CoA carboxylase (ACC) (Cell signaling technology, Code# 3661) and anti-phosphorylated S6K antibody specific to phosphorylated S6 kinase (S6K) (Cell signaling technology, Code# 9209) were used to detect the antibody by chemiluminescent detection with an ECL system (Amersham) to quantify an amount of phosphorylated protein with LAS-1000 plus image analysis device (FUJIFILM).

[5] = test system: phosphorylated acetyl-CoA carboxylase (ACC); experiment: Western blotting of phosphorylated ACC in BT-474 cells; conditions: Example 7, two hours, antimycin 1-0.01 nmol/L, oligomycin 100-1 ng/mL, 2,4-dinitrophenol 300-3 µmol/L
Method: as §5

Molecule | minimum concentrations for inhibiting cell proliferation for 50% or more [1] | minimum concentrations for inhibiting cell proliferation for 50% or more [2] | minimum concentrations for inhibiting cell proliferation for 50% or more [3] | phosphorylation of S6K [4] | phosphorylation of ACC [5]
O=[N+]([O-])c1ccc(O)c([N+](=O)[O-])c1 [2,4-dinitrophenol] | <0.02 mmol/L | <0.02 mmol/L | <0.02 mmol/L | suppressed | increased dose-dependently
antimycin | 1e-06 mmol/L | 1e-06 mmol/L | 1e-06 mmol/L | suppressed | increased dose-dependently
